Calls of active or inactive are those of the source.
Experiments:
[1] = molecular target: DNA dC->dU-editing enzyme APOBEC-3A (Homo sapiens, UniProt P31941); assay: Dose Response confirmation of small molecule APOBEC3A DNA Deaminase Inhibitors via a fluorescence-based single-stranded DNA deaminase assay. [Related pubchem assays (depositor defined):AID493011, AID493024]; format: functional
[2] = molecular target: T1, DNA dC->dU-editing enzyme APOBEC-3G (Homo sapiens, UniProt Q9HC16); format: functional
Trypsin = Trypsin (Sus scrofa, UniProt P00761); assay: trypsin protease activity blockade – biochemical, quenched peptide fluorescence, cherry-pick, selectivity assay for Rce1 protease inhibitor project, dose response (AID 488789)
CAAX prenyl protease 2 = molecular target: T2, CAAX prenyl protease 2 (Saccharomyces cerevisiae S288c, UniProt Q03530); format: biochemical
T2 sequence (Q03530 whole entry): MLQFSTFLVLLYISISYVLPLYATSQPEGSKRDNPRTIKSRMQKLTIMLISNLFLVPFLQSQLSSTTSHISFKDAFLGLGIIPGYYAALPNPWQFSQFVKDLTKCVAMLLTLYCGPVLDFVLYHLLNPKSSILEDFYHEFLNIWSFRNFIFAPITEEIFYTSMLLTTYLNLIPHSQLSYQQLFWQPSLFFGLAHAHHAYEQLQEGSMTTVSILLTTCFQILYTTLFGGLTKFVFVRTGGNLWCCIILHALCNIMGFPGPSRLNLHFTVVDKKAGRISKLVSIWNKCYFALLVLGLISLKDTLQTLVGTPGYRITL

[3] = molecular target: T3, Carboxy-terminal domain RNA polymerase II polypeptide A small phosphatase 1 (Homo sapiens, UniProt Q9GZU7); assay: CTDSP1 inhibitors, concentration-response, biochemical, absorbance readout, ultra-high-throughput screen actives (AID 540297); format: functional
T3 sequence (Q9GZU7 whole entry): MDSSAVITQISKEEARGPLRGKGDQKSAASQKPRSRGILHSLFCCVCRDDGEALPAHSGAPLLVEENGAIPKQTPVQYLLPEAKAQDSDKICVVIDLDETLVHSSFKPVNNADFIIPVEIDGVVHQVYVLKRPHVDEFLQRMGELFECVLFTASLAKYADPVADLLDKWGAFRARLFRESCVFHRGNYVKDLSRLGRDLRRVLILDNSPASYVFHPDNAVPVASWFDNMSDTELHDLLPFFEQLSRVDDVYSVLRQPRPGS

[4] = Trypanosoma cruzi growth suppression in host cells – NIH3T3 host cells, beta-gal luminescence, confirmation (AID 2044); format: functional, cell-based;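 further: intracellular parasites grown in NIH/3T3 mouse fibroblasts as host cells; luminescent beta-galactosidase reporter signal from transgenic T. cruzi replicating inside host cells; inhibitors lower the luminescence signal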
[5] = NIH3T3 cell viability loss – ATP luminescence, mouse fibroblasts, counter-screen, dose response (AID 2010); format: functional, cell-based;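 further: cells exposed to compound for about 90 hours before reading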
Leucine aminopeptidase = molecular target: T4, Leucine aminopeptidase (Plasmodium falciparum 3D7, UniProt Q8IL11); assay: P. falciparum M17LAP inhibitors, primary screen, biochemical, fluorogenic H-Leu-NHMec substrate, 1536-well (AID 1619); format: functional
T4 sequence (Q8IL11 whole entry): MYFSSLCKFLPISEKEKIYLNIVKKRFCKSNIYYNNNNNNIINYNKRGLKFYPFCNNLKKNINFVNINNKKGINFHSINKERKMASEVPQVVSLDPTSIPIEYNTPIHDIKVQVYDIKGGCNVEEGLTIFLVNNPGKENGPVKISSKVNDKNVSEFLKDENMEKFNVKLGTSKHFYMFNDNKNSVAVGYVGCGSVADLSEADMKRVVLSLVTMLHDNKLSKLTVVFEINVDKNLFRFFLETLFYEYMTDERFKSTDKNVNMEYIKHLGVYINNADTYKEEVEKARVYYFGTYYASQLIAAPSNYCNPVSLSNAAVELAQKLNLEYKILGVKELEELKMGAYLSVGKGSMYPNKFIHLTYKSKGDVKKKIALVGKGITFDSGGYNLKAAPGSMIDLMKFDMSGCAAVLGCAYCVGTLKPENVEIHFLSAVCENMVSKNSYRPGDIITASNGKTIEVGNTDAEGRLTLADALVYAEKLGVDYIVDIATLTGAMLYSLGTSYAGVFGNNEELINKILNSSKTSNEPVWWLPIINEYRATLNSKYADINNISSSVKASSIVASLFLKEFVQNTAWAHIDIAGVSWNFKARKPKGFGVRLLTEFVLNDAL

[6] = molecular target: T5, Mannose-6-phosphate isomerase (Homo sapiens, UniProt P34949); assay: MPI inhibition at elevated mannose 6-phosphate – biochemical, fluorescence intensity, high mannose 6-phosphate, primary screen (AID 1220)
T5 sequence (P34949 whole entry): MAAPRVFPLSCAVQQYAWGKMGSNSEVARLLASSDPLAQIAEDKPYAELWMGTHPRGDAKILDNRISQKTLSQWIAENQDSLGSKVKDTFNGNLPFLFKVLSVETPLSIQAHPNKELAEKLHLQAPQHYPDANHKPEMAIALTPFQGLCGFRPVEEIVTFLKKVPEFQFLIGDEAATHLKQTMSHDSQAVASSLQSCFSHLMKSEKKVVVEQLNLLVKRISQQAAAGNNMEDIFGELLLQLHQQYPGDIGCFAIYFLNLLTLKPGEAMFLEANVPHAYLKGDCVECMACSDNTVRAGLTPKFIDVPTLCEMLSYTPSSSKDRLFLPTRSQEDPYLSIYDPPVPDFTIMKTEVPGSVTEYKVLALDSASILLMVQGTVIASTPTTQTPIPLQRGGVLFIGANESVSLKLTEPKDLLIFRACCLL

[7] = molecular target: T6, Short transient receptor potential channel 4 (Mus musculus, UniProt Q9QUQ5); assay: block of DAMGO-driven TRPC4 calcium entry – cell-based, HEK293 TRPC4/mu-opioid, Fluo-4 calcium, dose response (AID 434942); format: functional;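 further: potency of inhibitors blocking the TRPC4 calcium response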
T6 sequence (Q9QUQ5 whole entry): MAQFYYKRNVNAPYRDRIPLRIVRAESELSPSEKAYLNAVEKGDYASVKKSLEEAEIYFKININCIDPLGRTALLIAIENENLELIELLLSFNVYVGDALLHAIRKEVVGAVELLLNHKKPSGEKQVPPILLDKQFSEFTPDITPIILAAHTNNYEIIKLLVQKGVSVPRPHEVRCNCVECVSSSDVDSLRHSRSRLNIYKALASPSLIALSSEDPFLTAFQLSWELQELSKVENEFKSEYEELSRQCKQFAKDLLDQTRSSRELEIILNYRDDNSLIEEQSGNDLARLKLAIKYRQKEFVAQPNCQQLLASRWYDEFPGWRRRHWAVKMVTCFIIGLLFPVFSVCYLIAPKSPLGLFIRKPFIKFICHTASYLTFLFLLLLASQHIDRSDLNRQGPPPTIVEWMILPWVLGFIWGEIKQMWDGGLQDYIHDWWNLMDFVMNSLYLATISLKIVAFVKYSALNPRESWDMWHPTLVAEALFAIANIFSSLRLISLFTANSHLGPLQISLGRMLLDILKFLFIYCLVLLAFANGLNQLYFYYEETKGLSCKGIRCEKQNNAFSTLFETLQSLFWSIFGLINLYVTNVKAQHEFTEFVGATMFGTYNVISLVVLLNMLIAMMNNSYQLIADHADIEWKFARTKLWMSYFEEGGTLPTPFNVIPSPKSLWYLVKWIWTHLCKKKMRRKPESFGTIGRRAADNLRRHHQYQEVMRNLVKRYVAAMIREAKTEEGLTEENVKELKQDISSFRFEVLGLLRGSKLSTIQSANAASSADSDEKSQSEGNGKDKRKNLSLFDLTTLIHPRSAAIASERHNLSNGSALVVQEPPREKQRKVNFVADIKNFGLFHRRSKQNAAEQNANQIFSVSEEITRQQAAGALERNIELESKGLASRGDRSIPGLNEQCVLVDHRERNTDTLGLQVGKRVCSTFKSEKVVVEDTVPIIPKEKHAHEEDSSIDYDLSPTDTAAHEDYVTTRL

[8] = viability of uninfected HEp-2 cells – cell-based, HTS, cytotoxicity control for RSV inhibitor project, dose response (AID 2410); format: functional; conditions: human respiratory syncytial virus
[9] = HPDE-C7 pancreatic duct cell viability loss – fluorescence, HTS (AID 430); format: functional, cell-based; conditions: Homo sapiens
[10] = viability loss of HPDE-C7K cells – cell-based, fluorescence, HTS, primary screen (AID 431); format: functional; conditions: Homo sapiens
[11] = molecular target: T7, Calpain-2 catalytic subunit (Sus scrofa, UniProt P43367); assay: m-calpain protease blockers, concentration series – biochemical, fluorogenic peptide substrate, dose response (AID 1420); format: functional
T7 sequence (P43367 whole entry): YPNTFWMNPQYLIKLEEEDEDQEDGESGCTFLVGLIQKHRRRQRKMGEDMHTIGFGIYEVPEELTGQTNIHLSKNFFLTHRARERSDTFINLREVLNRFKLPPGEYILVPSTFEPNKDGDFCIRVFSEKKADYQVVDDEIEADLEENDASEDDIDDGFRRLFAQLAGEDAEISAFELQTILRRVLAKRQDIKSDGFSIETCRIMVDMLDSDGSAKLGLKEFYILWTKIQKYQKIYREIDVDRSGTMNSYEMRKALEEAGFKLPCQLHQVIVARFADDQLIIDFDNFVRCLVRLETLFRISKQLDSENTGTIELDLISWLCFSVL

[12] = microbe, parasite or virus in culture; format: functional; conditions: Mycobacterium tuberculosis
cells [13] = format: functional, cell-based
cells [14] = format: functional, cell-based; remark: listed apart in the source
[15] = molecular target: Glucose-6-phosphate 1-dehydrogenase (Homo sapiens, UniProt P11413); assay: inhibition of Homo sapiens G6PD, dose series – biochemical, fluorescence, selectivity assay for P. falciparum G6PD inhibitor project, dose response (AID 504792); format: functional
[16] = molecular target: T1, DNA dC->dU-editing enzyme APOBEC-3G; assay: Dose Response confirmation of small molecule APOBEC3G DNA Deaminase Inhibitors via a fluorescence-based single-stranded DNA deaminase assay. [Related pubchem assays (depositor defined):AID493012, AID493028]; format: functional
[17] = molecular target: Peroxisome proliferator-activated receptor gamma/Nuclear receptor coactivator 2 (Homo sapiens, UniProt P37231); format: functional;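 further: agonist potency for raising coactivator recruitment to the receptor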
[18] = molecular target: Peroxisome proliferator-activated receptor gamma/Nuclear receptor coactivator 1 (Homo sapiens, UniProt P37231); format: functional;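 further: agonist potency as compounds enhance coactivator SRC-1 recruitment to PPARgamma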
[19] = molecular target: Peroxisome proliferator-activated receptor gamma/Nuclear receptor coactivator 3 (Homo sapiens, UniProt P37231); format: functional;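 further: agonist potency for raising coactivator recruitment to the receptor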
cells [20] = format: functional
[21] = off-target signal loss in HeLa-CEM21 co-culture – HeLa F-luc CTL cells, cherry-picked, counter-screen for HIV-1 Env fusion inhibitor project, dose response (AID 652040); format: functional, cell-based;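 further: potency for signal decrease marking cytotoxic or nonspecific inhibition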

T1 sequence (Q9HC16 whole entry): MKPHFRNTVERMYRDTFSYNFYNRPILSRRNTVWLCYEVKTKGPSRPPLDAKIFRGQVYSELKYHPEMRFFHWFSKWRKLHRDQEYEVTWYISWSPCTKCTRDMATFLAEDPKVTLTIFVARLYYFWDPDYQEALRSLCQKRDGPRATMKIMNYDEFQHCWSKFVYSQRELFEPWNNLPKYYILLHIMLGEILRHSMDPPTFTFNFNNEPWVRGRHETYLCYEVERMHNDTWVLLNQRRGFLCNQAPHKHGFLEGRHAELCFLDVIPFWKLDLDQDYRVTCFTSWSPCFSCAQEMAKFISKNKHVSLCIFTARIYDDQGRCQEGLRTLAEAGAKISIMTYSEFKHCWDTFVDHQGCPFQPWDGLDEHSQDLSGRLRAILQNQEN
Sequence of Peroxisome proliferator-activated receptor gamma/Nuclear receptor coactivator 1 (P37231 whole entry): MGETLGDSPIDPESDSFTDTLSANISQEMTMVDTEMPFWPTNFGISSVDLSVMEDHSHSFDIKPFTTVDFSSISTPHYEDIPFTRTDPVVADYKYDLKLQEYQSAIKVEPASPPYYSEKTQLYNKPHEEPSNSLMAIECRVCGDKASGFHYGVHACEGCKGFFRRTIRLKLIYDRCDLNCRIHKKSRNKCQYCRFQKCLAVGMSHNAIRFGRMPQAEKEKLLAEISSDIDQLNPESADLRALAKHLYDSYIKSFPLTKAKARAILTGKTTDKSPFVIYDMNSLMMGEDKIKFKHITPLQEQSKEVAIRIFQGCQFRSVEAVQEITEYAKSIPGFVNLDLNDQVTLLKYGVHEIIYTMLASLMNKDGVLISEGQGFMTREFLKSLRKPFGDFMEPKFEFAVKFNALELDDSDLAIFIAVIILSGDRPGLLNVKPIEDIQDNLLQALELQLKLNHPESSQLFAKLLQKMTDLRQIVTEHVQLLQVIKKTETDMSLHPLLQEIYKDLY
Sequence of Peroxisome proliferator-activated receptor gamma/Nuclear receptor coactivator 1 (Q15788 whole entry, further chain): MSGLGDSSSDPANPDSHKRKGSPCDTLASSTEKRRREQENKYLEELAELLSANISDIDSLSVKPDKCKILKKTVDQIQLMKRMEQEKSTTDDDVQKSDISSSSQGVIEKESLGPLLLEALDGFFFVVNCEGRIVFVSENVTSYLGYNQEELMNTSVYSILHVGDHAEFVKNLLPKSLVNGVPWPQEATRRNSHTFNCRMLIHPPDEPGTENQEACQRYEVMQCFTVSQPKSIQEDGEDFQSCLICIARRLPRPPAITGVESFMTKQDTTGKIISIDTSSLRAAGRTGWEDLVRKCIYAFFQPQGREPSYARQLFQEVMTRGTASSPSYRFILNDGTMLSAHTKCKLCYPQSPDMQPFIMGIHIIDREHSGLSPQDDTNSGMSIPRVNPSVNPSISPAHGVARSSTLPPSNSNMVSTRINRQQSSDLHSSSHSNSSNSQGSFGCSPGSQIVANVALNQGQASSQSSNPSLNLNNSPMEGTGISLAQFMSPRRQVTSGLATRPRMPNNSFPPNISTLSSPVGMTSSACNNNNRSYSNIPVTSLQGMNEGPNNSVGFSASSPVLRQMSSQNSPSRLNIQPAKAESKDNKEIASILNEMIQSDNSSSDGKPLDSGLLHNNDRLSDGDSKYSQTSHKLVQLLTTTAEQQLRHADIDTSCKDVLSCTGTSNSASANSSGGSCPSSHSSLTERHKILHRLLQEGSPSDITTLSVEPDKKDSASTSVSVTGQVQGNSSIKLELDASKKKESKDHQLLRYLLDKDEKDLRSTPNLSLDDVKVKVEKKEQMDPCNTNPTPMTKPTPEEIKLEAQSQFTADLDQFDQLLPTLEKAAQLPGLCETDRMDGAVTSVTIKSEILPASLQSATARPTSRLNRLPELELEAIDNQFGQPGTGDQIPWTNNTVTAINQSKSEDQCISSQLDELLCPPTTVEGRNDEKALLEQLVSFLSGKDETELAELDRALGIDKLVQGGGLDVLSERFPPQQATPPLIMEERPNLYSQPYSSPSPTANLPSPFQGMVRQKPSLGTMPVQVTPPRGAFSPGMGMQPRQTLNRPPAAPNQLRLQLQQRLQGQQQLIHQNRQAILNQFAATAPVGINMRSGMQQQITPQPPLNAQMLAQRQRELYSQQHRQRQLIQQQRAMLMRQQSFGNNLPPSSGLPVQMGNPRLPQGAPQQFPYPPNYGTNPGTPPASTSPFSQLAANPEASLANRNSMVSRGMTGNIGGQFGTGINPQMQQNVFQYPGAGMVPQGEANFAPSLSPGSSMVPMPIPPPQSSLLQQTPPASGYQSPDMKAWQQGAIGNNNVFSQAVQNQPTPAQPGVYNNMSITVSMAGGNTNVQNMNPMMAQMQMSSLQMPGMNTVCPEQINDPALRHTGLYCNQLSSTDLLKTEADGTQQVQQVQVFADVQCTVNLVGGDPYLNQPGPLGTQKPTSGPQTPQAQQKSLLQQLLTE
Sequence of Peroxisome proliferator-activated receptor gamma/Nuclear receptor coactivator 3 (P37231 whole entry): as the sequence (P37231 whole entry) above
Sequence of Peroxisome proliferator-activated receptor gamma/Nuclear receptor coactivator 3 (Q9Y6Q9 whole entry, further chain): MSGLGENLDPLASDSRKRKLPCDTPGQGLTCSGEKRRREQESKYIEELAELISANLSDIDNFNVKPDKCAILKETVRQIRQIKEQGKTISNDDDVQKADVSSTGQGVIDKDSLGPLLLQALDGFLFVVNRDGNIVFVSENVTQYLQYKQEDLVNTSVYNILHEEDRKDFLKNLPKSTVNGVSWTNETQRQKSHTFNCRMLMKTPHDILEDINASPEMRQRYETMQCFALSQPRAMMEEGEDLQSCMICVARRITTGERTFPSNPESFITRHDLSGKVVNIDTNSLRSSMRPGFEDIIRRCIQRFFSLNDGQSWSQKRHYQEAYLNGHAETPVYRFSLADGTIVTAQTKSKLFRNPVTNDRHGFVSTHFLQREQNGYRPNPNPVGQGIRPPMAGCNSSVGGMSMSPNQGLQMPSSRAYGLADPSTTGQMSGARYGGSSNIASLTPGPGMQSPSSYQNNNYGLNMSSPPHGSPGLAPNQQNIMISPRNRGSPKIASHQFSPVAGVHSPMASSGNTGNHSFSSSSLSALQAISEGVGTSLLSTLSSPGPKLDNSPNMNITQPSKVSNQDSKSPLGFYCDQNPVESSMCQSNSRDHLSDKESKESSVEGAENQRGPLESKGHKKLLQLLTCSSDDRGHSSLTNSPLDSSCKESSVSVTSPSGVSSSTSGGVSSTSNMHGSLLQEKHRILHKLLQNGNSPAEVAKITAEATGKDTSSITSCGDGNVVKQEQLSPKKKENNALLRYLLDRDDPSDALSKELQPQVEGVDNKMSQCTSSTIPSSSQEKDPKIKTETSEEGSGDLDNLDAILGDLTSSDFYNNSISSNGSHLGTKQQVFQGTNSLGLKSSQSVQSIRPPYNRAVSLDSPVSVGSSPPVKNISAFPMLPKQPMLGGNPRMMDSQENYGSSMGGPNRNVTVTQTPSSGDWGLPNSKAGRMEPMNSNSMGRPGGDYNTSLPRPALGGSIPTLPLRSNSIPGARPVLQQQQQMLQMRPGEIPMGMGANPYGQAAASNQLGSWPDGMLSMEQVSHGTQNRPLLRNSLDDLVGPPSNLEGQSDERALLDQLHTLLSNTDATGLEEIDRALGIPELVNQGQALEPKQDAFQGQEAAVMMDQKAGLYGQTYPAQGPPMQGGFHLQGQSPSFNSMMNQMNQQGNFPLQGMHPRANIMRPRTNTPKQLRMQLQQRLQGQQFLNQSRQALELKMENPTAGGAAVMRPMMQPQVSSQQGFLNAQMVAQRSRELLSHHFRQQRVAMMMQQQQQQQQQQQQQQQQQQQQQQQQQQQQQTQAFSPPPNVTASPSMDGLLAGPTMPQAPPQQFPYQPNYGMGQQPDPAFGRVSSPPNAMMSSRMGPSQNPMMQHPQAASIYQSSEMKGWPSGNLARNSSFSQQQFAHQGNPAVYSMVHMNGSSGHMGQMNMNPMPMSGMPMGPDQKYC
Sequence of DNA dC->dU-editing enzyme APOBEC-3A (P31941 whole entry): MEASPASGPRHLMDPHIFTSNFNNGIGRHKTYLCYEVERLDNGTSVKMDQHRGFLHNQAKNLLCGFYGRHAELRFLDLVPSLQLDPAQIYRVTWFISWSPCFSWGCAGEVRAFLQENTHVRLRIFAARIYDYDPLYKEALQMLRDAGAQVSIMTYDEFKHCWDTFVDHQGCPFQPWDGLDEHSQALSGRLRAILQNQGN
Sequence of Glucose-6-phosphate 1-dehydrogenase (P11413 whole entry): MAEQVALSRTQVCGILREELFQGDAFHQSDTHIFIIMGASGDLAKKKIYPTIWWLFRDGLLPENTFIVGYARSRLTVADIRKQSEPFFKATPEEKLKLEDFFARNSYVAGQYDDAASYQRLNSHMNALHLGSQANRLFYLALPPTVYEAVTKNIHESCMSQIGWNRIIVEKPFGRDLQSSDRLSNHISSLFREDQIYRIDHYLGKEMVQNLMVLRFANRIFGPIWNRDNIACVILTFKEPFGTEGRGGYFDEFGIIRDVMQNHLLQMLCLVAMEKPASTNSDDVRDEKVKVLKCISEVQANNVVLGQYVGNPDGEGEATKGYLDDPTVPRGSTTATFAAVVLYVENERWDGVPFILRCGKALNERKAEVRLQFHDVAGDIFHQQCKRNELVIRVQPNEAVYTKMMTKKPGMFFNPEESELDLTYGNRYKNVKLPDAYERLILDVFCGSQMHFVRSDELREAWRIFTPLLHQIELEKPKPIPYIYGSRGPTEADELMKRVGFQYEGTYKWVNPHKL

## CNC(=O)OCc1n(C)cc[n+]1C
[1]
  IC50: 1.76 µM (active)
[2]
  IC50: 1.31 µM (active)

## Cc1cccc2[nH]c3c(N4CCC5(CC4)OCCO5)ncnc3c12
Trypsin
  AC50: 36.5 µM (active)
CAAX prenyl protease 2
  AC50: 13.7 µM (active)

## C[N+](C)(C)CCCN(Cc1ccc2c(c1)OCO2)C(=O)NC1CCCCC1
[1]
  IC50: 2.43 µM (active)
[2]
  IC50: 4.17 µM (active)
[3]
  IC50: 3.12 µM (active)

## Cc1nc(N2CCOCC2)c2c(C)c(C(=O)Nc3ccc(C(F)(F)F)cc3)sc2n1
[4]
  EC50: 0.522 µM (active)
[5]
  EC50: > 60 µM (not active)
CAAX prenyl protease 2
  AC50: 5.99 µM (active)

## CC(C)c1ccc(C(=O)CSc2nc[nH]n2)cc1
Leucine aminopeptidase
  IC50: 33 µM (active)
[6]
  IC50: 9.69 µM (active)

## O=c1c2ccccc2[nH]c(=S)n1CCN1CCN(Cc2ccccc2)CC1
[7]
  EC50: 4.73 µM (active)

## O=C(COC(=O)Cn1cnc2ccccc2c1=O)Nc1ccccc1Sc1ccc(Cl)cc1
[7]
  EC50: 1.88 µM (active)

## CCOC(=O)c1c2c(c(=S)n(-c3ccccc3)c1N)CCC2
[8]
  CC50: 26.4 µM (active)
[9]
  EC50: 10.4 µM (active)
[10]
  EC50: 9.88 µM (active)
[11]
  IC50: 7.26 µM (not active)

## CCOC(=O)C1=C(C)N=C(C)/C(=C(/O)OC)C1c1cccc(Cl)c1Cl (stereo not given)
[9]
  EC50: 8.98 µM (active)
[10]
  EC50: 10.4 µM (active)

## CC(C)(C)c1ccc(Cn2nnc3c(O)nc(C4CCCN(C(=O)Cc5cccs5)C4)nc32)cc1 (stereo not given)
[9]
  EC50: 15.6 µM (active)
[12]
  CC50: > 40 µM (active)
[10]
  EC50: 18.4 µM (active)

## CCC(C)(C)c1nnc(NC(=O)C2CCN(C(=O)c3ccco3)CC2)s1
Cells [13]
  EC50: > 350 µM (not active)
Cells [14]
  EC50: > 350 µM (not active)
[15]
  IC50: > 80 µM (inactive)
[16]
  IC50: 25.9 µM (active)

## COCCn1c(C)cc(C(=O)COC(=O)CNC(=O)c2ccccc2)c1C
[11]
  IC50: > 50 µM (not active)

## CCn1c(=N)n(CC(=O)c2ccc(Br)s2)c2ccccc21
[7]
  EC50: 13.3 µM (active)

## Cc1oc(-c2ccoc2)nc1CN(Cc1ccccc1)CC1CC1
[7]
  EC50: 4.22 µM (active)

## COC(=O)c1ccccc1NC(=O)c1cc(-c2ccc(O)cc2)on1
[17]
  EC50: 31.5 µM (not active)
[18]
  EC50: 24.9 µM (not active)
[19]
  EC50: 33.6 µM (not active)

## Oc1ccc(F)c2cccnc12
[6]
  IC50: 7.42 µM (active)
Cells [20]
  IC50: 4.21 µM (active)

## CC(C)(C)NC(=O)c1ccc(Sc2ccccc2)c([N+](=O)[O-])c1
[11]
  IC50: 11.9 µM (not active)

## COc1ccc(OCC(=O)Nc2cc(-c3nn(C)c(=O)c4ccccc34)ccc2OC)cc1
[17]
  EC50: 31.2 µM (not active)
[18]
  EC50: 62.6 µM (not active)
[19]
  EC50: 76.6 µM (not active)
[21]
  AC50: 30.3 µM (active)
